From patent publication US6900351B2, “Aminopolycarboxylates, process for producing the same and use thereof” (Tosoh Corporation, priority 2000, dated 2005)

Assay: Chelatability (constant of calcium ion stability) test with calcium ion electrode
Type: physicochemical
Settings: 25° C., pH 10, 1 mmol/l chelating agent with equivalent 1 mmol/l calcium chloride
Method: To 1 mmol/l aqueous solution of this sodium aminopolycarboxylate, an equivalent amount of a 1 mmol/l aqueous solution of calcium chloride was added. Then the constant of calcium ion stability (pKCa^2+) was determined by measuring the calcium ion concentration at pH 10.0 by using a calcium ion electrode.
(1) Formation of Calibration Curve
By using calcium chloride, solutions having calcium concentrations of 0.1 mmol/l, 1.0 mmol/l and 10 mmol/l were prepared and the potential of each solution was measured. Based on the data thus obtained, a calibration curve of the logarithmic calcium ion concentration vs. potential was formed.
(2) Measurement of Constant of Stability
An aqueous solution (100 ml) was prepared by adding a chelating agent (1 mmol/l) and calcium chloride (1 mmol/l) at an equivalent ratio to an aqueous solution containing 0.1 mmol/l of ammonium chloride to achieve a constant ionic strength. After stirring this solution for 10 minutes, the potential of the solution at 25° C. at pH 10 was measured. Based on the calibration curve formed in (1), the calcium ion concentration corresponding to the potential thus measured was determined and the constant of stability was calculated on the assumption that the sample and calcium ion formed a complex at a ratio of 1:1.

SMILES: O=C([O-])CC(NCCNC(CC(=O)[O-])C(=O)O)C(=O)[O-].[Na+].[Na+].[Na+] (stereo not shown) [trisodium N,N′-ethylenediaminedisuccinate, reference compound]
- constant of calcium ion stability (pKCa2+): 3.8
